In the experiment the target is NA of clade 2.3.4.4b A(H5N1) viruses lacking the flagged NA substitutions (n = 15) (Influenza A virus, UniProt Q9Q0U7). The experiment is classed as biochemical. Conditions: read-out: Median IC50 A(H5N1).

IC50 data for one substance are collected here from article PMC10508830 (Antiviral research, 2023).

NA of clade 2.3.4.4b A(H5N1) viruses lacking the flagged NA substitutions (n = 15), sequence (Q9Q0U7 whole entry, looked up): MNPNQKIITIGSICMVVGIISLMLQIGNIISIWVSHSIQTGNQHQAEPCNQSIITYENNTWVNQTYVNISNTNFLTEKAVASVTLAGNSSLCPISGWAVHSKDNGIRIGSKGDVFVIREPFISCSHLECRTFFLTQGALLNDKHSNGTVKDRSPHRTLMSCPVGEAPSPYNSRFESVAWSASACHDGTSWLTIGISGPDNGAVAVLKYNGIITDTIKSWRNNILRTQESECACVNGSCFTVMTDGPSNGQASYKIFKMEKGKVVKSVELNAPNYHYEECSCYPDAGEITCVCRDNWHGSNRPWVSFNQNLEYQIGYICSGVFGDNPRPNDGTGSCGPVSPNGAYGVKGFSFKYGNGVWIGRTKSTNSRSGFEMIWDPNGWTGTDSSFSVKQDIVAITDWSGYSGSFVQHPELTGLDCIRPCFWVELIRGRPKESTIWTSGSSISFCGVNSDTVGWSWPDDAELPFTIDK

As to peramivir, the IC50 – broadly, the concentration at which inhibition is half-maximal – is 100 pM.
